Experimental findings from US20180360790A1, “NUTRITIONAL COMPOSITIONS AND INFANT FORMULAS TO PROMOTE MYELINATION IN THE BRAIN” (NESTEC S.A., priority 2015, published 2018) are described below.

The test concerns brain myelination (myelin water fraction). In words: Cross-sectional correlation of infant formula nutrient composition with brain myelination (mcDESPOT MRI, general linear model). In kind it is in vivo, infants and young children. The following applies: single GLM of quantified formula nutrients and child age vs myelin water fraction; children up to 5 years; 5 most frequently used formulas. How it is done:
This technique provides a quantitative measure, the Myelin Water Fraction (MWF), which is a surrogate marker of myelin content. When mapped as a function of time across early childhood, myelination trajectories can be generated. Infant formula composition: six infant formulas fed to infants participating in study were analyzed for their composition/level of myelin-relevant nutrients. […] Infants included in this study were drawn from a larger longitudinal study of normal brain and behavioral development: the Brown university Assessment of Myelination and Behavior Across Maturation (BAMBAM). To focus on neurotypical development, children with known potential risk factors for learning, neurologic, or psychiatric disorders were specifically excluded during recruitment and enrollment. […] Each infant was scanned using the mcDESPOT (multicomponent Driven Equilibrium Single Pulse Observation of T1 and T2) white matter imaging technique Deoni et al. (Magn. Reson. Med. 2008, 60:1372-1387), which provides a quantitative measure of the myelin water fraction (MWF) at each imaging point throughout the brain. […] Mean values for each region were then determined for each child and used for subsequent developmental analysis and trajectory modeling.

Regarding Iron, the “nutritional drivers for myelination indicated by the final model” value was “identified drivers”.

Consider sphingomyelin, for which the “nutritional drivers for myelination indicated by the final model” value is “identified drivers”.
